This is an account of results in publication PMC10073488 (Frontiers in Pharmacology, 2023).

For data set [1] the following is noted: human, in vivo. As to the method:
There were two studies in the project. Study 1 was under the fasting state, and study 2 was under the fed state. […] The studies aimed to compare the PK profiles and safeties of the T and R drugs. The study protocols were approved by the Wuxi People’s Hospital Ethics Committee (Approval No. 2018LLPJ-I-14-03) and were conducted at Wuxi People’s Hospital Affiliated to Nanjing Medical University, Jiangsu Province, China. The studies were performed in accordance with the principles of the World Medical Association (WMA) Declaration of Helsinki. All volunteers signed written informed consents before enrollment.
Subjects received a single oral dose of the T or R drug in each period in a randomized way under either fasting or fed conditions, with a wash-out of 7 days. For the fed study, subjects finished the high-fat diet (containing protein 16.52%, fat 56.85%, carbohydrate 26.63%) in 30 min and were given the drug with 240 ml of a 20% glucose solution in water 30 min after they started eating the diet. For the fasting study, the drug was administered with 240 ml of a 20% glucose solution in water under the fasting state. An overnight fast for at least 10 h before administration was required. Subjects were not allowed to drink water 1 h before and after dosing, and lunch could be served only 4 h after dosing for both studies.
Venous blood samples (4 ml) were collected from an intravenous indwelling catheter before dosing and at 0.5, 1, 1.5, 2, 2.5, 3, 3.5, 4, 4.5, 5, 6, 7, 8, 9, 10, 11, 12, 14, 24, 32, 48, and 72 h after dosing for both fed and fasting studies. Blood samples were drawn into BD Vacutainers® with ethylene diamine tetra acetic acid (EDTA) anticoagulant. Plasma was separated by centrifugation at 2150 ± 5 g for 10 min at 2°C–8°C and stored at −20°C within 2 h after sampling and transferred to −80°C within 24 h.
Study data were summarized by descriptive statistics. The statistical analyses were performed using SAS® version 9.4. For the comparisons, Cmax, AUC0–t, and AUC0–∞ were analyzed using linear mixed models after logarithmic transformation. […] was achieved if the 90% CI of each parameter geometric means ratio (GMR) test/reference fell between 0.8–1.25. The statistical analysis included treatment, period, sequence, and subject-within-sequence as fixed effects. Tmax was compared between treatments using the non-parametric Wilcoxon signed-rank test.

Details of data set [2]: method as in Schnaars et al., 2023. The note with it: metformin 1000 mg, IR; fed condition; ref Schnaars et al., 2023; cited from earlier work.
Data set [3] can be described thus: Published BE studies of sitagliptin (100 mg) and sitagliptin–metformin (50/1000 mg) IR fixed-dose combination. The class given is in vivo. To be noted: sitagliptin (100 mg) alone; fasting condition; published values (ref Schnaars et al., 2023) compared with own data.
The conditions of data set [4]: sitagliptin, ref FDA, 2005, 2006, 2012; cited from earlier work.

A word on the Cmax: it is the peak of the concentration-time curve. As for `CN(C)C(=N)N=C(N)N` [Metformin, metformin], in data set [1], the “Intra-individual variation of AUC0-t” value was found to be 13.01%, the “Intra-individual variation of AUC0-∞” value is given as 13.31% and the “Intra-individual variation of Cmax” value came out at 11.61%. Also, in data set [2], the Cmax was 1.59289 ng/mL and the “median Tmax” value is given as 3.5 h.
Turning to `N[C@@H](CC(=O)N1CCn2c(nnc2C(F)(F)F)C1)Cc1cc(F)c(F)cc1F` [Sitagliptin, sitagliptin], in data set [1], the “Intra-individual variation of AUC0-t” value came out at 6.05%, the “Intra-individual variation of AUC0-∞” value worked out at 6.04% and the “Intra-individual variation of Cmax” value came out at 19.42%. The “Cmax, AUC0−t, AUC0−∞ higher than the data of this study” value in data set [3] is 14–32%. Also, in data set [4], the t1/2 result is reported as “around 12 h”.
